According to US20220031740A1, “THERAPEUTIC USES OF ATOMIC QUANTUM CLUSTERS” (priority 2018, published 2022):

What was measured:
E. Co/i = test: E. coli survival with Ag5-AQC and DTT; assay type: cell-based; settings: DTT at 10 mM
From the text: The mechanism responsible is thought to be thiol oxidation. […] The opposite is also true, i.e. Ag5-AQCs rescue E. Co/i from DTT action as expected from to redox agents with opposed action.

[1] = system: A549luc orthotopic lung tumour and mediastinal lymph node metastases; test: A549luc orthotopic lung cancer model metastasizing to mediastinal lymph nodes; assay type: in vivo
Experimental: (a) Ag5-AQCs cause a reduction in tumour growth in mice with orthotopic brain cancer. Experimental groups: Ag5-AQCs (0.25 mg/kg) and control (no treatment). (b-d) Ag5-AQCs treatment causes a reduction in tumour growth in mice with orthotopic lung cancer. (b) Tumour growth measured in vivo by luminescence (IVIS® Spectrum). Black arrows represent treatment administration times in the study. (c) Luciferase activity quantification measured ex vivo in lung and in mediastinal lymph nodes. (d) Immunohistochemical staining of lung tumour (arrows indicate the tumour nodules). Experimental groups: CDDP (4 mg/kg), Ag5-AQCs (0.25 mg/kg) and control (no treatment). (e) Body weight over the whole experiment. […]
For Ag5-AQCs treatment, mice were divided into three groups (5 animals in each): the first group (control) underwent no treatment, the second group was treated with cisplatin (CDDP) (four single doses, 4 mg/kg) and the third group was treated with Ag5-AQCs (four single doses, 0.25 mg/kg). […] The lung and mediastinal lymph nodes were removed and luminescence was quantified per microgram of protein in body as described in Borrajo et al. (2016). […]
Another limiting factor in cancer treatment is the occurrence of metastasis. […] In this model the occurrence of metastasis to lymph nodes is well established and could be detected 13 days after the injection of tumour cells. […]

Nrf2 = Nrf2 location by immunofluorescence in HEK293 cells; assay type: cell-based, human; settings: HEK293, 30 minutes; Ag5-AQC IC50, NEM 100 μM

O[C@H](CS)[C@H](O)CS (racemic) [DTT, Dithiothreitol]
E. coli survival, DTT alone (E. Co/i): toxic for bacteria

[NH2][Pt]([NH2])([Cl])[Cl] [CDDP, Cisplatin]
luciferase activity in the primary tumour and in the mediastinal lymph nodes (ex vivo) ([1]; day 37, vs control mice): significant reduction in luciferase activity | tumour size in lung (in vivo bioluminescence) ([1]; intravenously days 20, 22, 24, 26, CDDP 4 mg/kg, Ag5-AQC 0.25 mg/kg, 37 days, vs control): significant reduction in tumour size

CCN1C(=O)C=CC1=O [NEM, N-ethylmaleimide]
Nrf2 staining and nuclear location (Nrf2): increased the nuclear accumulation of Nrf2
